Experimental data reported in article PMC4278221, “Territrem and Butyrolactone Derivatives from a Marine-Derived Fungus Aspergillus Terreus” (Marine Drugs, 2014).
Values after ≈ are worked out from the molar mass of the structure shown. Where two headings read alike, the source gives them in different places.

Key:
Vero cell line = test: Cytotoxic activity against Vero cell line by MTT method; format: cell-based; details: non-cytotoxic concentration (TC0)
Description: (§1) Cytotoxic activity was evaluated using Vero cell lines by the MTT method. Anti-HSV-1 activity was determined by plaque assay using monolayer cultures of Vero cells in 24-well culture plates (Corning, New York, NY, USA). Virus suspension containing HSV-1 (30 plaque forming units (PFU)/well) was added to the cell wells and incubated at 37 °C with 5% CO2 for 2 h. The virus inoculum was then removed and overlay medium (maintenance medium containing 1% methylcellulose and various concentrations of tested compound) was added to each well. After another 72 h of incubation, the cell monolayers were fixed with 10% formalin and stained with 1% crystal violet. Plaques were counted and the percentage of inhibition was calculated according to literature. The concentration reducing plaque numbers by 50% was calculated by regression analysis of the dose–response curves generated from the plaque assay and was defined as 50% inhibitory concentration (IC50).

HSV-1 = test: Anti-HSV-1 plaque reduction assay in Vero cell monolayers; format: cell-based; details: 72 h, read-out: Anti-HSV-1 IC50
Description: The antiviral activities of 1–17 towards HSV-1 were evaluated using plaque reduction assay for the first time.
as §1

[1] = test system: barnacle Balanus amphitrite larvae; test: Barnacle Balanus amphitrite larval settlement bioassay (antifouling); details: for EC50: Amphibalanus amphitrite, 24 h, read-out: Antifouling Against B. Amphitrite EC50; for LC50/EC50 values: antifouling activity at nontoxic concentrations, B. amphitrite larvae
Description: Larval settlement bioassays were performed using sterile 24-well polystyrene plates. Tested samples were dissolved in DMSO to a concentration of 50 μg·mL^−1 for preliminary bioassay. […] About 20 competent larvae were added to each well in 1 mL of the test solution. The experiment was repeated twice with four replicateseach time. Wells containing only FSW with DMSO served as the controls. The plates were incubated at 27 °C for 24 h. The percentage of larval settlement was determined by counting the settled, live individuals under a dissecting microscope and expressing the result as a proportion of the total number of larvae in the well. Statistical calculations were performed with the SPSS software package.

AChE = molecular target: T1, AChE (Homo sapiens, UniProt P22303); test: biochemical
T1 construct: purchased Sigma
Description: The inhibitory activities against AChE of compounds were investigated in vitro using the modified Ellman method. Briefly, the reaction mixture containing 20 μL of a different concentrations of the test compunds dissolved in DMSO solution, 450 μL of reaction buffer (0.01 M phosphate buffer, pH 7.0), 10 μL of 0.08-0.10 units/mL AChE (Sigma, one unit hydrolyzes […] of acetylcholineto choline and acetate per min at pH 7.0, 37 °C) and 10 μL of 0.01 M DTNB (Sigma, St. Louis, MO, USA) were filled in a microwell of 24-well polystyrene plate and incubated for 30 min at 37 °C. After preincubation, The reaction was started by adding 20 μL of 0.01 M ATCh (Sigma, St. Louis, MO, USA) solution in 0.01 M phosphate buffer (pH 7.0). Colorimetric measurements (412 nm) were performed on a enspire multimode microplate reader (varioskan flash, Thermo, Waltham, MA, USA). For determining the blank value, the 20 μL of test compound solution was instead of 20 μL of DMSO solution. Each concentration was analyzed in triplicate. […] IC50 values were determined graphically from the regression analysis of concentration-inhibition curves. The IC50 values are the mean ± standard deviations of three independent experiments.

[2] = Human alphaherpesvirus 1, plaque reduction assay in Vero cells, under non-cytotoxic concentrations (TC0)

T1 sequence (P22303 32-614): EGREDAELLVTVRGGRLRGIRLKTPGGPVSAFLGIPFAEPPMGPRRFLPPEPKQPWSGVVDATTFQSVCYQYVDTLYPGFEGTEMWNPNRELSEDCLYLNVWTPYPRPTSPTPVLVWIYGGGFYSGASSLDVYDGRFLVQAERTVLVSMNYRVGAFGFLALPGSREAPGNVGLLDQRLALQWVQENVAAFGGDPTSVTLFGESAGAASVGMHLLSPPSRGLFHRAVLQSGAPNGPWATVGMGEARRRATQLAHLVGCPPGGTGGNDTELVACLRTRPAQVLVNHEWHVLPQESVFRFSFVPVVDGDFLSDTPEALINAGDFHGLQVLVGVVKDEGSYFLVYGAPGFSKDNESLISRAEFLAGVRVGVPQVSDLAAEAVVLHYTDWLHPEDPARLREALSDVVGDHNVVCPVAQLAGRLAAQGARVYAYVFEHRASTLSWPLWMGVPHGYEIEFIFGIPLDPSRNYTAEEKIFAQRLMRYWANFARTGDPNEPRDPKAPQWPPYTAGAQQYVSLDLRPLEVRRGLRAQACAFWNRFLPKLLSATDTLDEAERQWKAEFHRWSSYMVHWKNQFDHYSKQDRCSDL

Nc1nc2c(ncn2COCCO)c(=O)[nH]1 [Acyclovir, reference compound]
Cytotoxicity Against Vero TC0 (Vero cell line): >1000 µg/mL
IC50 (HSV-1; [2]): 34.5 ± 0.7 µg/mL (≈ 153 µM)

COc1cc(-c2cc3c(c(=O)o2)C[C@]2(O)[C@@]4(C)C(=O)C=CC(C)(C)[C@]4(O)CC[C@@]2(C)O3)cc(O)c1OC [Compound 1, territrem D]
Cytotoxicity Against Vero TC0 (Vero cell line): 25 µg/mL
EC50 [1]: 12.9 ± 0.5 µg/mL (≈ 25.2 µM)
LC50/EC50 values [1]: > 100 µg/mL
IC50 (AChE): 0.0042 ± 0.0006 µM

COc1cc(-c2cc3c(c(=O)o2)C[C@]2(O)[C@@]4(C)C(=O)C=CC(C)(C)[C@]4(O)CC[C@@]2(C)O3)ccc1O [Compound 2, territrem E]
Cytotoxicity Against Vero TC0 (Vero cell line): 200 µg/mL
IC50 (AChE; modified Ellman method, pH 7.0, 37 °C, mean ± SD of three independent experiments, read-out: Anti-AChE IC50): 0.0045 ± 0.0006 µM

COc1ccc(-c2cc3c(c(=O)o2)C[C@H]2[C@@](C)(CC[C@@]4(O)C(C)(C)OC(=O)CC[C@]24C)O3)cc1 [Compound 3, 11a-dehydroxyisoterreulactone A]
Cytotoxicity Against Vero TC0 (Vero cell line): 200 µg/mL
IC50 (HSV-1; [2]): 16.4 ± 0.6 µg/mL (≈ 35 µM)

COc1cc(-c2cc3c(c(=O)o2)C[C@]2(O)[C@@]4(C)C(=O)C=CC(C)(C)[C@]4(O)CC[C@@]2(C)O3)cc(OC)c1OC [Compound 4, territrem B]
Cytotoxicity Against Vero TC0 (Vero cell line): 25 µg/mL
IC50 (AChE): 0.0042 ± 0.0006 µM

COc1cc(-c2cc3c(c(=O)o2)C[C@]2(O)[C@@]4(C)C(=O)C=CC(C)(C)[C@]4(O)CC[C@@]2(C)O3)cc(OC)c1O [Compound 5, territrem C]
Cytotoxicity Against Vero TC0 (Vero cell line): >25 µg/mL
IC50 (AChE): 0.0201 ± 0.0033 µM

COc1ccc(-c2cc3c(c(=O)o2)C[C@]2(O)[C@@]4(C)C(=O)C=CC(C)(C)[C@]4(O)CC[C@@]2(C)O3)cc1OC [Compound 6, arisugacin A]
Cytotoxicity Against Vero TC0 (Vero cell line): 100 µg/mL
IC50 (AChE): 0.0119 ± 0.0021 µM
IC50 (HSV-1; Human alphaherpesvirus 1, Vero): 6.34 ± 0.4 µg/mL (≈ 12.8 µM)

COc1ccc(-c2cc3c(c(=O)o2)C[C@]2(O)[C@@]4(C)[C@@H](O)C[C@@H](OC(C)=O)C(C)(C)[C@]4(O)CC[C@@]2(C)O3)cc1 [Compound 7, arisugacin H]
Cytotoxicity Against Vero TC0 (Vero cell line): 100 µg/mL
IC50 (AChE; modified Ellman method, value printed in μM in text, read-out: Anti-AChE IC50): 5.7 ± 0.8 µM

COc1ccc(-c2cc3c(c(=O)o2)C[C@]2(O)[C@@]4(C)CCC(=O)C(C)(C)[C@]4(O)CC[C@@]2(C)O3)cc1 [Compound 8, terreulactone C]
Cytotoxicity Against Vero TC0 (Vero cell line): >25 µg/mL
IC50 (AChE): 0.05 ± 0.0015 µM

COC1(Cc2ccc(O)cc2)OC(=O)C(O)=C1c1ccc(O)cc1 (stereo not shown) [Compound 10, isobutyrolactone II]
Cytotoxicity Against Vero TC0 (Vero cell line): 200 µg/mL
IC50 (HSV-1; [2]): 21.8 ± 1.8 µg/mL (≈ 66.4 µM)

COC(=O)[C@]1(Cc2ccc3c(c2)C[C@H](O)C(C)(C)O3)OC(=O)C(O)=C1c1ccc(O)cc1 [Compound 11, butyrolactone V]
EC50 [1]: 22.1 ± 0.8 µg/mL (≈ 50.2 µM)
LC50/EC50 values [1]: > 100 µg/mL

COC(=O)[C@]1(Cc2ccc3c(c2)CCC(C)(C)O3)OC(=O)C(O)=C1c1ccc(O)cc1 [Compound 12, aspernolide A]
Cytotoxicity Against Vero TC0 (Vero cell line): 100 µg/mL
EC50 [1]: 7.4 ± 0.6 µg/mL (≈ 17.4 µM)
LC50/EC50 values [1]: > 100 µg/mL
IC50 (HSV-1; [2]): 28.9 ± 1.8 µg/mL (≈ 68.1 µM)

COC(=O)[C@]1(Cc2ccc(O)c(CCC(C)(C)O)c2)OC(=O)C(O)=C1c1ccc(O)cc1 [Compound 15, aspernolide B]
EC50 [1]: 16.1 ± 0.6 µg/mL (≈ 36.4 µM)
LC50/EC50 values [1]: > 100 µg/mL
